Source: PubChem BioAssay (NCI)
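Tested at 5 concentrations; 48 h exposure; 96-well plates; endpoints linearly interpolated, else capped at highest concentration. Abbreviation: GI50, concentration required for 50% inhibition of growth. TGI denotes the concentration required for complete inhibition of growth.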

How the values were obtained:
Test in all cases: NCI tumour cell line growth inhibition, 48 h
IGROV1 ovarian = system: IGROV1 ovarian
SK-MEL-2 melanoma = system: SK-MEL-2 melanoma
UO-31 renal = system: UO-31 renal
SK-MEL-28 melanoma = system: SK-MEL-28 melanoma
M14 melanoma = system: M14 melanoma
U251 CNS = system: U251 CNS
K-562 leukemia = system: K-562 leukemia
DU-145 prostate = system: DU-145 prostate
HS 578T breast = system: HS 578T breast
OVCAR-8 ovarian = system: OVCAR-8 ovarian
KM12 colon = system: KM12 colon
BT-549 breast = system: BT-549 breast
UACC-62 melanoma = system: UACC-62 melanoma
UACC-257 melanoma = system: UACC-257 melanoma
A549 NSCLC = system: A549 NSCLC
EKVX NSCLC = system: EKVX NSCLC
CAKI-1 renal = system: CAKI-1 renal
SNB-75 CNS = system: SNB-75 CNS
MDA-MB-435 = system: MDA-MB-435
ACHN renal = system: ACHN renal
HL-60(TB) leukemia = system: HL-60(TB) leukemia
HCT-15 colon = system: HCT-15 colon
T-47D breast = system: T-47D breast
SF-268 CNS = system: SF-268 CNS
PC-3 prostate = system: PC-3 prostate
MOLT-4 leukemia = system: MOLT-4 leukemia
TK-10 renal = system: TK-10 renal
SK-MEL-5 melanoma = system: SK-MEL-5 melanoma
OVCAR-5 ovarian = system: OVCAR-5 ovarian
MDA-N = system: MDA-N
SW-620 colon = system: SW-620 colon
HCT-116 colon = system: HCT-116 colon
RXF 393 renal = system: RXF 393 renal
NCI-H226 lung = system: NCI-H226 lung
NCI-H460 lung = system: NCI-H460 lung
NCI/ADR-RES ovarian = system: NCI/ADR-RES ovarian
NCI-H522 lung = system: NCI-H522 lung
SNB-19 CNS = system: SNB-19 CNS
OVCAR-4 ovarian = system: OVCAR-4 ovarian
HT29 colon = system: HT29 colon
MDA-MB-231 breast = system: MDA-MB-231 breast
SK-OV-3 ovarian = system: SK-OV-3 ovarian
SF-539 CNS = system: SF-539 CNS
SF-295 CNS = system: SF-295 CNS
COLO 205 colon = system: COLO 205 colon
NCI-H23 lung = system: NCI-H23 lung
OVCAR-3 ovarian = system: OVCAR-3 ovarian
RPMI-8226 leukemia = system: RPMI-8226 leukemia
HOP-92 NSCLC = system: HOP-92 NSCLC
HOP-62 NSCLC = system: HOP-62 NSCLC
SR leukemia = system: SR leukemia
MALME-3M melanoma = system: MALME-3M melanoma
A498 renal = system: A498 renal
HCC-2998 colon = system: HCC-2998 colon
SN12C renal = system: SN12C renal
CCRF-CEM leukemia = system: CCRF-CEM leukemia
LOX IMVI melanoma = system: LOX IMVI melanoma
MCF7 breast = system: MCF7 breast
786-0 renal = system: 786-0 renal
DMS 114 small cell lung = system: DMS 114 small cell lung
DLD-1 colon = system: DLD-1 colon
DMS 273 small cell lung = system: DMS 273 small cell lung
M19-MEL melanoma = system: M19-MEL melanoma
HOP-18 NSCLC = system: HOP-18 NSCLC
XF 498 CNS = system: XF 498 CNS
LXFL 529 NSCLC = system: LXFL 529 NSCLC
KM20L2 colon = system: KM20L2 colon
SNB-78 CNS = system: SNB-78 CNS

Compound: N#CS.N=C=S.N=C=S.[Cu+2].[NH2-].[NH2-].[NH2-].[NH2-].c1ccc2ncccc2c1
- GI50 (IGROV1 ovarian): 55.7 µM
- TGI (IGROV1 ovarian): > 100 µM
- GI50 (SK-MEL-2 melanoma): > 100 µM
- TGI (SK-MEL-2 melanoma): > 100 µM
- GI50 (UO-31 renal): 60.7 µM
- TGI (UO-31 renal): > 100 µM
- GI50 (SK-MEL-28 melanoma): > 100 µM
- TGI (SK-MEL-28 melanoma): > 100 µM
- GI50 (M14 melanoma): > 100 µM
- TGI (M14 melanoma): > 100 µM
- GI50 (U251 CNS): 20.1 µM
- TGI (U251 CNS): 38.1 µM
- GI50 (K-562 leukemia): > 100 µM
- TGI (K-562 leukemia): > 100 µM
- GI50 (DU-145 prostate): 17.3 µM
- TGI (DU-145 prostate): 36.1 µM
- GI50 (HS 578T breast): 29.4 µM
- TGI (HS 578T breast): > 100 µM
- GI50 (OVCAR-8 ovarian): > 100 µM
- TGI (OVCAR-8 ovarian): > 100 µM
- GI50 (KM12 colon): 31.5 µM
- TGI (KM12 colon): > 100 µM
- GI50 (BT-549 breast): > 100 µM
- TGI (BT-549 breast): > 100 µM
- GI50 (UACC-62 melanoma): 19.4 µM
- TGI (UACC-62 melanoma): 37 µM
- GI50 (UACC-257 melanoma): > 100 µM
- TGI (UACC-257 melanoma): > 100 µM
- GI50 (A549 NSCLC): 20.4 µM
- TGI (A549 NSCLC): 51.5 µM
- GI50 (EKVX NSCLC): 47.4 µM
- TGI (EKVX NSCLC): > 100 µM
- GI50 (CAKI-1 renal): > 100 µM
- TGI (CAKI-1 renal): > 100 µM
- GI50 (SNB-75 CNS): 21 µM
- TGI (SNB-75 CNS): 49.9 µM
- GI50 (MDA-MB-435): 19.4 µM
- TGI (MDA-MB-435): 41.3 µM
- GI50 (ACHN renal): > 100 µM
- TGI (ACHN renal): > 100 µM
- GI50 (HL-60(TB) leukemia): > 100 µM
- TGI (HL-60(TB) leukemia): > 100 µM
- GI50 (HCT-15 colon): > 100 µM
- TGI (HCT-15 colon): > 100 µM
- GI50 (T-47D breast): > 100 µM
- TGI (T-47D breast): > 100 µM
- GI50 (SF-268 CNS): 49.7 µM
- TGI (SF-268 CNS): > 100 µM
- GI50 (PC-3 prostate): > 100 µM
- TGI (PC-3 prostate): > 100 µM
- GI50 (MOLT-4 leukemia): > 100 µM
- TGI (MOLT-4 leukemia): > 100 µM
- GI50 (TK-10 renal): 90 µM
- TGI (TK-10 renal): > 100 µM
- GI50 (SK-MEL-5 melanoma): 17.8 µM
- TGI (SK-MEL-5 melanoma): 38.7 µM
- GI50 (OVCAR-5 ovarian): 21.6 µM
- TGI (OVCAR-5 ovarian): 41 µM
- GI50 (MDA-N): > 100 µM
- TGI (MDA-N): > 100 µM
- GI50 (SW-620 colon): > 100 µM
- TGI (SW-620 colon): > 100 µM
- GI50 (HCT-116 colon): > 100 µM
- TGI (HCT-116 colon): > 100 µM
- GI50 (RXF 393 renal): 25.5 µM
- TGI (RXF 393 renal): 44 µM
- GI50 (NCI-H226 lung): 28.3 µM
- TGI (NCI-H226 lung): 49.4 µM
- GI50 (NCI-H460 lung): 22.6 µM
- TGI (NCI-H460 lung): 48.7 µM
- GI50 (NCI/ADR-RES ovarian): > 100 µM
- TGI (NCI/ADR-RES ovarian): > 100 µM
- GI50 (NCI-H522 lung): 44.8 µM
- TGI (NCI-H522 lung): > 100 µM
- GI50 (SNB-19 CNS): 18.1 µM
- TGI (SNB-19 CNS): 32.9 µM
- GI50 (OVCAR-4 ovarian): 20.6 µM
- TGI (OVCAR-4 ovarian): 43.4 µM
- GI50 (HT29 colon): 60.7 µM
- TGI (HT29 colon): > 100 µM
- GI50 (MDA-MB-231 breast): 38.7 µM
- TGI (MDA-MB-231 breast): 84.2 µM
- GI50 (SK-OV-3 ovarian): 24.4 µM
- TGI (SK-OV-3 ovarian): 62.7 µM
- GI50 (SF-539 CNS): > 100 µM
- TGI (SF-539 CNS): > 100 µM
- GI50 (SF-295 CNS): 17.7 µM
- TGI (SF-295 CNS): 37 µM
- GI50 (COLO 205 colon): > 100 µM
- TGI (COLO 205 colon): > 100 µM
- GI50 (NCI-H23 lung): > 100 µM
- TGI (NCI-H23 lung): > 100 µM
- GI50 (OVCAR-3 ovarian): 21.3 µM
- TGI (OVCAR-3 ovarian): 41.8 µM
- GI50 (RPMI-8226 leukemia): > 100 µM
- TGI (RPMI-8226 leukemia): > 100 µM
- GI50 (HOP-92 NSCLC): > 100 µM
- TGI (HOP-92 NSCLC): > 100 µM
- GI50 (HOP-62 NSCLC): 36.9 µM
- TGI (HOP-62 NSCLC): > 100 µM
- GI50 (SR leukemia): > 100 µM
- TGI (SR leukemia): > 100 µM
- GI50 (MALME-3M melanoma): > 100 µM
- TGI (MALME-3M melanoma): > 100 µM
- GI50 (A498 renal): 28.4 µM
- TGI (A498 renal): 51 µM
- GI50 (HCC-2998 colon): 83.9 µM
- TGI (HCC-2998 colon): > 100 µM
- GI50 (SN12C renal): > 100 µM
- TGI (SN12C renal): > 100 µM
- GI50 (CCRF-CEM leukemia): 24.3 µM
- TGI (CCRF-CEM leukemia): 57.5 µM
- GI50 (LOX IMVI melanoma): 43.3 µM
- TGI (LOX IMVI melanoma): > 100 µM
- GI50 (MCF7 breast): 18.2 µM
- TGI (MCF7 breast): 35.9 µM
- GI50 (786-0 renal): > 100 µM
- TGI (786-0 renal): > 100 µM

Compound: COc1ccc2oc(C(=O)O)c3c2c1CCC3
- TGI (DMS 114 small cell lung): > 100 µM
- TGI (IGROV1 ovarian): > 100 µM
- TGI (SK-MEL-28 melanoma): > 100 µM
- TGI (M14 melanoma): > 100 µM
- TGI (U251 CNS): > 100 µM
- TGI (K-562 leukemia): > 100 µM
- TGI (DLD-1 colon): > 100 µM
- TGI (DMS 273 small cell lung): > 100 µM
- TGI (OVCAR-8 ovarian): > 100 µM
- TGI (UACC-62 melanoma): > 100 µM
- TGI (UACC-257 melanoma): > 100 µM
- TGI (A549 NSCLC): > 100 µM
- TGI (EKVX NSCLC): > 100 µM
- TGI (CAKI-1 renal): > 100 µM
- TGI (SNB-75 CNS): > 100 µM
- TGI (M19-MEL melanoma): > 100 µM
- TGI (ACHN renal): > 100 µM
- TGI (HL-60(TB) leukemia): > 100 µM
- TGI (HOP-18 NSCLC): > 100 µM
- TGI (HCT-15 colon): > 100 µM
- TGI (MOLT-4 leukemia): > 100 µM
- TGI (XF 498 CNS): > 100 µM
- TGI (LXFL 529 NSCLC): > 100 µM
- TGI (TK-10 renal): > 100 µM
- TGI (SK-MEL-5 melanoma): > 100 µM
- TGI (SW-620 colon): > 100 µM
- TGI (HCT-116 colon): > 100 µM
- TGI (RXF 393 renal): > 100 µM
- TGI (NCI-H460 lung): > 100 µM
- TGI (SNB-19 CNS): > 100 µM
- TGI (OVCAR-4 ovarian): > 100 µM
- TGI (HT29 colon): > 100 µM
- TGI (SK-OV-3 ovarian): > 100 µM
- TGI (SF-539 CNS): > 100 µM
- TGI (KM20L2 colon): > 100 µM
- TGI (SF-295 CNS): > 100 µM
- TGI (COLO 205 colon): > 100 µM
- TGI (NCI-H23 lung): > 100 µM
- TGI (OVCAR-3 ovarian): > 100 µM
- TGI (RPMI-8226 leukemia): > 100 µM
- TGI (HOP-92 NSCLC): > 100 µM
- TGI (HOP-62 NSCLC): > 100 µM
- TGI (A498 renal): > 100 µM
- TGI (HCC-2998 colon): > 100 µM
- TGI (SN12C renal): > 100 µM
- TGI (CCRF-CEM leukemia): > 100 µM
- TGI (LOX IMVI melanoma): > 100 µM
- TGI (SNB-78 CNS): > 100 µM
- TGI (786-0 renal): > 100 µM
